Measurements as given in ChEMBL document CHEMBL1201862, “PubChem BioAssay data set” (2004).
Counter-ions that a name gives are not always drawn. Activity calls are given as the source filed them.

Legend:
Albumin = Albumin (Bos taurus, UniProt P02769); experiment: Counterscreen for inhibitors of T-cell receptor (TCR)-CD3 interaction: Fluorescence-based biochemical high throughput dose response assay to identify inhibitors of T-cell receptor (TCR)-CD3 interaction using a TAMRA-labeled BSA probe.; format: functional
[1] = NIH-3T3 fibroblast cytotoxicity, dose response, cytotoxicity control, cell-based, fluorescence, Alamar Blue, secondary assay (AID 2327); format: functional;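 further: NIH-3T3 mouse fibroblasts cultured with fluconazole at 8 µg/mL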
[2] = fluconazole-exposed Candida albicans growth modulators – fluorescence, retest, confirmation (AID 2467); format: functional, cell-based
Protein Tat = target: T1, Protein Tat (Human immunodeficiency virus type 1 group M subtype B (isolate HXB2)(HIV-1), UniProt P04608); format: functional;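 further: tat binding to TAR RNA read out by fluorescence polarization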
T1 sequence (P04608 whole entry): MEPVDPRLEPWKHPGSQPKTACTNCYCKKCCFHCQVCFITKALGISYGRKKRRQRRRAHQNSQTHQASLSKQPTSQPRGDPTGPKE

[3] = target: Peroxisome proliferator-activated receptor gamma/Nuclear receptor corepressor 2 (Homo sapiens, UniProt P37231+Q9Y618); experiment: Counterscreen for NR2E3 inverse agonists: TR-FRET-based biochemical high throughput dose response assay to identify inverse agonists of the interaction between peroxisome proliferator-activated receptor gamma (PPARg) and nuclear receptor co-repressor 2 (NCOR2).; format: functional
[4] = target: Photoreceptor-specific nuclear receptor (Homo sapiens, UniProt Q9Y5X4); experiment: ligands suppressing NR2E3 nuclear receptor activity – biochemical, TR-FRET, dose response (AID 463256); format: functional
Cysteine protease ATG4B = target: T2, Cysteine protease ATG4B (Homo sapiens, UniProt Q9Y4P1); format: functional;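 further: Fluorescence-based dose-response confirmation assay measuring inhibition of ATG4B activity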
T2 sequence (Q9Y4P1 whole entry): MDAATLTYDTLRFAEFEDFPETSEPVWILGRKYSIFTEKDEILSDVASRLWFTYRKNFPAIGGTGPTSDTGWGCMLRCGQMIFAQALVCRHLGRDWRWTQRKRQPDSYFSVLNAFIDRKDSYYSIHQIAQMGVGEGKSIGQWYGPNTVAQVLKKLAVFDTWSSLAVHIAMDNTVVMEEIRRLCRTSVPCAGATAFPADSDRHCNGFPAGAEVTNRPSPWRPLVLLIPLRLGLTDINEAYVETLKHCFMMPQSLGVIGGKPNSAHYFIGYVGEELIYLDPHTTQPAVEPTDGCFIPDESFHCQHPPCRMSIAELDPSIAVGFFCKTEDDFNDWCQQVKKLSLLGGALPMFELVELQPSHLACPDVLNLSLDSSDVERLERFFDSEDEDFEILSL

Phospholipase A2 = Phospholipase A2 (Homo sapiens, UniProt P04054); format: functional;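 further: confirmatory dose-response counterscreen on phospholipase A2, testing hits that came from an ultra-high-throughput screen for ATG4B inhibitors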
Prothrombin = Prothrombin (Homo sapiens, UniProt P00734); experiment: Thrombin 1536 HTS Dose Response Confirmation. [Related pubchem assays: 1046 (Thrombin 1536 HTS; hits were confirmed in this assay)]; format: functional
Paired box protein Pax-8 = Paired box protein Pax-8 (Homo sapiens, UniProt Q06710); experiment: PAX8 transcriptional activity inhibition in RMG-I – RMG-I cells, luciferase, cherry-pick, dose response (AID 687027); format: functional, cell-based;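 further: luciferase reporter driven by Pax8 target thyroperoxidase promoter measured by SteadyGlo luminescence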
[5] = cytotoxicity toward HCT116 cells – cell-based, CellTiter-Glo luminescence, IC50, dose response (AID 1117332); format: functional; conditions: HCT-116
[6] = rise of 4N DNA cells, HeLa – IC50, dose response (AID 1117351); format: functional, cell-based
cells [7] = format: functional, cell-based
[8] = rise of 2N DNA cells, HeLa – IC50, dose response (AID 1117349); format: functional, cell-based
[9] = HCT116 cell viability decrease, GSK3B pretreatment – CellTiter-Glo, IC50, dose response (AID 1117339); format: functional; conditions: HCT-116
[10] = RKO cell viability reduction, dose response, CellTiter-Glo luminescence (AID 1117322); format: functional
[11] = target: T3, Nuclear receptor subfamily 0 group B member 1 (Homo sapiens, UniProt P51843); format: functional, cell-based;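 further: HEK293T cells transfected with SF-1 and DAX-1 plus StAR promoter luciferase reporter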
T3 sequence (P51843 whole entry): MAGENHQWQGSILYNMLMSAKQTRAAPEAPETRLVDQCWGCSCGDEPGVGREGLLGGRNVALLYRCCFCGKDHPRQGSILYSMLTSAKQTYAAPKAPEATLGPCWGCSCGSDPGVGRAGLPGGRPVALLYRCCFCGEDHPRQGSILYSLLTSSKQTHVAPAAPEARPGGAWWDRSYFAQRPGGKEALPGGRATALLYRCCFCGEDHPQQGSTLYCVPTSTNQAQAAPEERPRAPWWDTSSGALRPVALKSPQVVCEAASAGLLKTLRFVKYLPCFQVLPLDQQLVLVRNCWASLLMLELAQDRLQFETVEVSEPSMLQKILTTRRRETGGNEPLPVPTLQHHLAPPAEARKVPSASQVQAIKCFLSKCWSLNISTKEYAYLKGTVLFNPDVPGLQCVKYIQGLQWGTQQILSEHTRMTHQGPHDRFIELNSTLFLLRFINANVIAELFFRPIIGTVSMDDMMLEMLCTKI

[12] = cytotoxicity toward Colo320 cells – cell-based, CellTiter-Glo luminescence, IC50, dose response (AID 1117334); format: functional; conditions: COLO 320
[13] = cytotoxicity toward HT-29 cells – cell-based, CellTiter-Glo luminescence, IC50, dose response (AID 1117330); format: functional
[14] = target: Mitogen-activated protein kinase 10 (Homo sapiens, UniProt P53779); experiment: Dose response biochemical screening assay for inhibitors of c-Jun N-Terminal Kinase 3 (JNK3). [Related pubchem assays: 746 ]
[15] = target: G-protein coupled receptor 183 (Homo sapiens, UniProt P32249); experiment: SAR confirmation of small molecule antagonists of the EBI2 receptor via a luminescent beta-arrestin assa.; format: functional
[16] = target: Heat shock protein HSP 90-alpha (Homo sapiens, UniProt P07900); format: functional, organism-based
[17] = NIH3T3 cell viability loss – ATP luminescence, mouse fibroblasts, counter-screen, dose response (AID 2010); format: functional, cell-based;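 further: cells exposed to compound for about 90 hours before reading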
[18] = Trypanosoma cruzi growth suppression in host cells – NIH3T3 host cells, beta-gal luminescence, confirmation (AID 2044); format: functional, cell-based;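 further: intracellular parasites grown in NIH/3T3 mouse fibroblasts as host cells; luminescent beta-galactosidase reporter signal from transgenic T. cruzi replicating inside host cells; inhibitors lower the luminescence signal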
[19] = A cytotoxicity screen of small molecule inhibitors of the PhoP region in Salmonella typhi identified in the primary screen. [Related pubchem assays: 1850, 1864, 1985 ]; format: functional
cells [20] = experiment: cells
[21] = target: Sphingosine 1-phosphate receptor 2 (Homo sapiens, UniProt O95136); experiment: Dose Response Cell Based Assay for Antagonists of the S1P2 Receptor. [Related pubchem assays: 856, 736 ]; format: functional

Sequence of G-protein coupled receptor 183 (P32249 whole entry): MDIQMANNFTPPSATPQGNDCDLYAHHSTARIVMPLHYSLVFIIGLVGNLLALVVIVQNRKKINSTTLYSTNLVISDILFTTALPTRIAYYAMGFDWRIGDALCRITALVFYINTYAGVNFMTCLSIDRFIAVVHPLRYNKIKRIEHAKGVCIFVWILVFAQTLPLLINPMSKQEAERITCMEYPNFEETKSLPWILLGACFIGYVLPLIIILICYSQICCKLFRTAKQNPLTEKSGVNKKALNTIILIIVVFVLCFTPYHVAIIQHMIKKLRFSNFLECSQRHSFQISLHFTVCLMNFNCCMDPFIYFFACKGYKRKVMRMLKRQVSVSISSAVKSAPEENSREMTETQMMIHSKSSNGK
Sequence of Photoreceptor-specific nuclear receptor (Q9Y5X4 whole entry): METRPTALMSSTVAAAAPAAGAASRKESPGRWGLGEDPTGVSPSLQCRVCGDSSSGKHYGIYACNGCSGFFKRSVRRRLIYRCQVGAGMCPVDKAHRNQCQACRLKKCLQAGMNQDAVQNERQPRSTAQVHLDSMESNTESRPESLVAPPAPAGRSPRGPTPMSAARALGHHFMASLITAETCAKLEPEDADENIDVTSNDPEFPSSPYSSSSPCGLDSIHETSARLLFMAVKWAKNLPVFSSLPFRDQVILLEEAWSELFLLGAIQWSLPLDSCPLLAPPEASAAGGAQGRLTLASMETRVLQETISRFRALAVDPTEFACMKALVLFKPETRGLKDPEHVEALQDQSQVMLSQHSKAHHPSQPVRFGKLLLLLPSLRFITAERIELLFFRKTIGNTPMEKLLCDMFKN
Sequence of Albumin (P02769 whole entry): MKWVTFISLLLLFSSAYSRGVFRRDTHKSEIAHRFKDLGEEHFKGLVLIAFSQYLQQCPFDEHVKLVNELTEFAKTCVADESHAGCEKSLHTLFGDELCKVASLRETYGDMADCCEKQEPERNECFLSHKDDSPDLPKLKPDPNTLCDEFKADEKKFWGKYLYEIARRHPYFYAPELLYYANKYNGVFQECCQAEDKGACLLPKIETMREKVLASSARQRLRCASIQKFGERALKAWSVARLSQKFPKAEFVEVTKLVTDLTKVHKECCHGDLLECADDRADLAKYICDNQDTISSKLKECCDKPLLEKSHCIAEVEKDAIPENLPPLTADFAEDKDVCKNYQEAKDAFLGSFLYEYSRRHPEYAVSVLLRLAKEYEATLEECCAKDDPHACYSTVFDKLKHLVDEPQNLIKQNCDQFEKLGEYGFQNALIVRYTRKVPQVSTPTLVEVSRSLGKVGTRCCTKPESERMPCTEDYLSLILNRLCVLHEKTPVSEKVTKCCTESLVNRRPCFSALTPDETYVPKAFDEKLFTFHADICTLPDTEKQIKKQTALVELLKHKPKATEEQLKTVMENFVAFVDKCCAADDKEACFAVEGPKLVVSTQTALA
Sequence of Peroxisome proliferator-activated receptor gamma/Nuclear receptor corepressor 2 (P37231 whole entry): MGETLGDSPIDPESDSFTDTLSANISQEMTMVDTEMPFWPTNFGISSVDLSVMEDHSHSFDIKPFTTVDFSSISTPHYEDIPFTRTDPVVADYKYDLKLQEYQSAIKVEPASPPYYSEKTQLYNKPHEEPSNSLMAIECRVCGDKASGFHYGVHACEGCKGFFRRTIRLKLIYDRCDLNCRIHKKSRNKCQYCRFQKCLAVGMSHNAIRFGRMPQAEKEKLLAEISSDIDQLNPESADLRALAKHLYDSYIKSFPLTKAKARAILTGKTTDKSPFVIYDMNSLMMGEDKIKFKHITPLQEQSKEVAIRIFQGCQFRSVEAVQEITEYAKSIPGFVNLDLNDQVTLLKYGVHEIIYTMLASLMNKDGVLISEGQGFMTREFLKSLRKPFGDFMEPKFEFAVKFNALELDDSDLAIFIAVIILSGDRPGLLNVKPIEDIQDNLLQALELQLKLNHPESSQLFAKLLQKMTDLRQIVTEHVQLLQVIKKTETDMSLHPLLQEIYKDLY
Sequence of Peroxisome proliferator-activated receptor gamma/Nuclear receptor corepressor 2 (Q9Y618 whole entry): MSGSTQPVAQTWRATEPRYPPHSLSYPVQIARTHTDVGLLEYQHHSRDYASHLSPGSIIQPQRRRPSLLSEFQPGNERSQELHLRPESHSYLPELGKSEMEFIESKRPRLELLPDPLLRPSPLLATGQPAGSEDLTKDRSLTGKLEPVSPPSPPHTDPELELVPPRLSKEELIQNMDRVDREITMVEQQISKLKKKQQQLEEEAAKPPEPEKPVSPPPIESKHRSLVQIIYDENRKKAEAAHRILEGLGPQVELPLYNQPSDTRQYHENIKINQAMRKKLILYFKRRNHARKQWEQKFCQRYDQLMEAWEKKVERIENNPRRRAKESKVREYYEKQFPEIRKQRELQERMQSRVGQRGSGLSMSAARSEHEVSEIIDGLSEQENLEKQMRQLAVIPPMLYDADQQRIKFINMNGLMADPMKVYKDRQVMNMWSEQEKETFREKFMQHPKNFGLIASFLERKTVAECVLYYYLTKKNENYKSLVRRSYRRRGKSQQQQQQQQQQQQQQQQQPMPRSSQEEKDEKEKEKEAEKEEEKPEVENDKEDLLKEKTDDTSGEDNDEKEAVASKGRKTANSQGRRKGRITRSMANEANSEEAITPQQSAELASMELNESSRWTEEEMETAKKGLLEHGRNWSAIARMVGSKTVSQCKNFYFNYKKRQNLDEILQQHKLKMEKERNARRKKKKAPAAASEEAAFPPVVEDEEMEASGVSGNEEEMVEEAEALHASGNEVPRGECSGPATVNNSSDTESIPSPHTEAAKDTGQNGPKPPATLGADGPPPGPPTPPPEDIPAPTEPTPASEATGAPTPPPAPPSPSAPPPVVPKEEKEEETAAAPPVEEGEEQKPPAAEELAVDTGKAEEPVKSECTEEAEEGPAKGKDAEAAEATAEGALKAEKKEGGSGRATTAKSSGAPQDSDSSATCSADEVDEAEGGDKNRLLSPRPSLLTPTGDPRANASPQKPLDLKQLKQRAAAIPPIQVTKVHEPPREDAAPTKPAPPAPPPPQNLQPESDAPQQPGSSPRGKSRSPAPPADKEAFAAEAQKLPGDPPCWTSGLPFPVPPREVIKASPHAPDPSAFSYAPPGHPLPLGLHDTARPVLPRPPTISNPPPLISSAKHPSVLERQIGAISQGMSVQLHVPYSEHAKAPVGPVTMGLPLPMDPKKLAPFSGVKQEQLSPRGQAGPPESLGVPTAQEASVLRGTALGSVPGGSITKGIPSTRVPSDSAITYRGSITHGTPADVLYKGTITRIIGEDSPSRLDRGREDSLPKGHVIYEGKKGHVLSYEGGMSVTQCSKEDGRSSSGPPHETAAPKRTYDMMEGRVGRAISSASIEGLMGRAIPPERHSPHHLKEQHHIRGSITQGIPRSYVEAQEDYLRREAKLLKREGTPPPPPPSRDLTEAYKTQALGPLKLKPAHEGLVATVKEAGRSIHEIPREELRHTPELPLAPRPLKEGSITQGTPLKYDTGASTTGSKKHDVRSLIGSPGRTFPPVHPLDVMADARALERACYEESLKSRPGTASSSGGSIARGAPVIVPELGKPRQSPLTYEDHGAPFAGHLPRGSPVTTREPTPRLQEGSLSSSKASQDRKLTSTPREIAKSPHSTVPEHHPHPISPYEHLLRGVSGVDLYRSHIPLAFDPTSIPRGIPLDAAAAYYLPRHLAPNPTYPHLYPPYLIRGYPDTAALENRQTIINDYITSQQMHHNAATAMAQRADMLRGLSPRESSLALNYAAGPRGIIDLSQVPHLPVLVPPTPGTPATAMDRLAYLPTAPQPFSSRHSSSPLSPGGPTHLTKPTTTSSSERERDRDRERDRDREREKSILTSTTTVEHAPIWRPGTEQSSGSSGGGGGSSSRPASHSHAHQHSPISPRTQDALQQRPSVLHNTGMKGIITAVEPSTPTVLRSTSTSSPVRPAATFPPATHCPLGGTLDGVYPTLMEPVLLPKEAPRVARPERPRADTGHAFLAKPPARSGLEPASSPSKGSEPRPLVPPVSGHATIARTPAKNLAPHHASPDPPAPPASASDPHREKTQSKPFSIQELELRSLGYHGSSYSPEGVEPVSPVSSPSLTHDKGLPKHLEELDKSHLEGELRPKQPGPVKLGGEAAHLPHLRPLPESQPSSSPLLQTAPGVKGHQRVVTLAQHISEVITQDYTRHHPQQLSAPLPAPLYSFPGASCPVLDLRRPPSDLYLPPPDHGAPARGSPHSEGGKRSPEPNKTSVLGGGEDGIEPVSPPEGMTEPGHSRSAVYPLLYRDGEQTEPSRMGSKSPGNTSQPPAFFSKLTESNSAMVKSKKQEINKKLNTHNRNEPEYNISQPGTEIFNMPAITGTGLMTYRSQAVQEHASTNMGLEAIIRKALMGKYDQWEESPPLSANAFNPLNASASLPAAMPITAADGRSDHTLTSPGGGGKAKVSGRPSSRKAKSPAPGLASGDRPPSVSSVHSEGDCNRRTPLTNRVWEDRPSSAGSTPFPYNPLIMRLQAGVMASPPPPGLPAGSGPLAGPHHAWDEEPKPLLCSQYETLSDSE
Sequence of Paired box protein Pax-8 (Q06710 whole entry): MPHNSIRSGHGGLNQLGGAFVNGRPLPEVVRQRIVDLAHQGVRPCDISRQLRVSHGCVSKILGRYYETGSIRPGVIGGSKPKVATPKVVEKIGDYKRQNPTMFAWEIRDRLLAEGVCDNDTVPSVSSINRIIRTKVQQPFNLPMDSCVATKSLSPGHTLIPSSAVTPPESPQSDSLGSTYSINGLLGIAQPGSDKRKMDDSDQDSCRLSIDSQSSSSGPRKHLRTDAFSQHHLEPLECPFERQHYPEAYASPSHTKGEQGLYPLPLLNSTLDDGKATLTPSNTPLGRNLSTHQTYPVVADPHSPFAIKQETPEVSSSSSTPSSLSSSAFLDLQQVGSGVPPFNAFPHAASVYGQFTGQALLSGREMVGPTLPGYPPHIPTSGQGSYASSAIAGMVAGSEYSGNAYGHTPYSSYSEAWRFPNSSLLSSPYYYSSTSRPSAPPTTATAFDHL
Sequence of Phospholipase A2 (P04054 whole entry): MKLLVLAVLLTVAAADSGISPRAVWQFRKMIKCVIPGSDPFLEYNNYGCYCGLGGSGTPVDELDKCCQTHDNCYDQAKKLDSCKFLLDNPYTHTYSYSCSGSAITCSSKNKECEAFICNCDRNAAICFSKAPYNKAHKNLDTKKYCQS

In the case of `COc1ccc(/C=N\NC(=O)c2cc(O)c(O)c(O)c2)cc1CN1CCN(c2ccc(F)cc2)CC1`, the IC50 (Albumin) is reported as > 94.2 µM (inactive), the EC50 [1] is reported as > 150 µM (inactive) and the EC50 [2] is reported as 1.46 µM (active). The IC50 (Protein Tat) was > 100 µM (inconclusive).

For `Cc1ccc2oc(-c3ccc(NC(=O)c4ccc5c(c4)OCO5)cc3)nc2c1`, the IC50 [3] was 2 µM (active) and the IC50 [4] was 2.88 µM (active).

In the case of `O=c1cc(O)[nH]c2c1sc1nc(C(F)(F)F)c3c(c12)CCCCC3`, the IC50 (Cysteine protease ATG4B) is reported as 11.1 µM (active), the IC50 [3] is reported as > 39.8 µM (not active) and the IC50 (Phospholipase A2) is reported as 9.53 µM (active). For the same molecule, the IC50 [4] was > 39.8 µM (not active).

In the case of `N#Cc1c(/N=C/c2ccco2)sc2c1CCC2`, the IC50 (Prothrombin) is reported as > 50 µM (not active).

In the case of `CC[C@]1(O)C[C@@H]2CN(CCc3c([nH]c4ccccc34)[C@@](C(=O)OC)(c3cc4c(cc3OC)N(C)[C@H]3[C@@](O)(C(=O)OC)[C@H](OC(C)=O)[C@]5(CC)C=CCN6CC[C@]43[C@@H]65)C2)C1` [VINBLASTINE SULFATE], the AC50 (Paired box protein Pax-8) is reported as < 0.26 µM (active), the IC50 [5] is reported as 0.001 µM (active) and the IC50 [6] is reported as 0.0032 µM (active). The IC50 (cells [7]) was > 67.5 µM (inactive), the IC50 [8] was 0.0048 µM (active) and the IC50 [9] was 0.001 µM (active). The IC50 [10] was 0.001 µM (active), the IC50 [11] was > 67.5 µM (inactive) and the IC50 [12] was 0.001 µM (active). For the same molecule, the IC50 [13] was 0.001 µM (active).

With `CCOC(=O)c1c(-c2ccccc2)[nH]c2ccc(O)cc12` the IC50 [14] was 22.2 µM (not active).

In the case of `N#Cc1ccccc1S(=O)(=O)N1CCN(C(=O)/C=C/c2ccc(F)cc2)CC1`, the IC50 [15] is reported as 0.0482 µM (active).

In the case of `CCOC(=O)C1=C(NC(=O)Nc2ccc(Cl)c(Cl)c2)Nc2ccccc2N=C1CC`, the IC50 (Albumin) is reported as > 94.1 µM (inactive), the AC50 [16] is reported as 2.11 µM (active) and the EC50 [17] is reported as > 60 µM (not active). For the same molecule, the EC50 [18] was 2.13 µM (active).

With `CCCCC(=O)N1CCN(C(=O)/C=C/c2ccc(Br)cc2)CC1` the IC50 [15] was 0.00562 µM (active).

In the case of `CN1CCc2nc(SCC(=O)Nc3cccc(F)c3)c(C#N)c(-c3cccs3)c2C1`, the EC50 [19] is reported as > 50 µM (active), the EC50 [17] is reported as > 60 µM (not active) and the EC50 (cells [20]) is reported as < 0.004 µM (active). The EC50 [18] was < 0.1 µM (active).

With `CC(C)=CCCC(C)CN1CCC(n2nccc2NC(=O)c2ccc3c(c2)OCO3)CC1` (stereo unspecified) the EC50 [17] was 9.11 µM (active), the EC50 (cells [20]) was > 10 µM (not active) and the EC50 [18] was < 0.1 µM (active).

With `CN(C)/C=N\C(=O)c1sc2cc(C(F)(F)F)cnc2c1-c1cccs1` the IC50 [21] was > 30 µM (not active).
